Measurements as given in patent US20100298141A1, “SUBSTITUTED PYRIDINE N-OXIDE HERBICIDES” (E. I. DU PONT DE NEMOURS AND COMPANY, priority 2007, published 2010).

Legend:
lambsquarters = assay: Test C pre-/postemergence test; assay type: in vivo, Chenopodium album; conditions: for Plant response rating, Lambsquarters: scale 0 to 100, 0 no effect, 100 complete control
In short: (§1)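 Compounds in a non-phytotoxic solvent with surfactant applied preemergence to seeded pots and, at the same time, postemergence to plants 2–18 cm tall (1- to 4-leaf stage). Paddy tests: pots flooded to 3 cm, compound applied into the water, depth held throughout.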

pigweed = assay: Test C pre-/postemergence test; assay type: in vivo, Amaranthus retroflexus; conditions: for Plant response rating, Pigweed: scale 0 to 100, 0 no effect, 100 complete control
In short: as §1

cocklebur = assay: Test C pre-/postemergence test; assay type: in vivo, Xanthium strumarium; conditions: for Plant response rating, Cocklebur: scale 0 to 100, 0 no effect, 100 complete control
In short: as §1

morningglory = assay: Test A pre-/postemergence greenhouse test; assay type: in vivo, Ipomoea spp.; conditions: for Morningglory plant response rating: 0 to 100 scale
In short: (§2)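 Planting was into mixed loam soil and sand; preemergence treatment followed as a directed soil spray. Concurrently, emerged plants (one- to two-leaf, 2–10 cm) received postemergence applications of identically formulated compound (non-phytotoxic solvent, surfactant). After approximately ten days under greenhouse conditions, injury was judged by eye against untreated plants.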

barnyardgrass [1] = assay: Test A pre-/postemergence greenhouse test; assay type: in vivo, Echinochloa crus-galli; conditions: for Barnyardgrass plant response rating: 0 to 100 scale
In short: as §2

[2] = test system: common (oilseed) sunflower; assay: Test C pre-/postemergence test; assay type: in vivo, Helianthus annuus; conditions: for Sunflower plant response rating: preemergence, scale 0 (no effect) to 100 (complete control)
In short: as §1

bermudagrass = assay: Test C pre-/postemergence test; assay type: in vivo, Cynodon dactylon; conditions: for Plant response rating, Bermudagrass: Postemergence, scale 0 to 100, 0 no effect, 100 complete control
In short: as §1

crabgrass [3] = assay: Test C pre-/postemergence test; assay type: in vivo, Digitaria sanguinalis; conditions: for Plant response rating, Crabgrass, Large: scale 0 to 100, 0 no effect, 100 complete control
In short: as §1

barnyardgrass [4] = assay: Test C flooded paddy test; assay type: in vivo, Echinochloa crus-galli; conditions: Flood
In short: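 Ratings were visual and made relative to untreated controls after 13 to 15 greenhouse days.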

Goosegrass = assay: Test C pre-/postemergence test; assay type: in vivo, Eleusin indica; conditions: for Plant response rating, Goosegrass: scale 0 to 100, 0 no effect, 100 complete control
In short: as §1

Italian ryegrass = assay: Test C pre-/postemergence test; assay type: in vivo, Lolium multiflorum; conditions: for Plant response rating, Ryegrass, Italian: scale 0 to 100, 0 no effect, 100 complete control
In short: as §1

soybean = assay: Test C pre-/postemergence test; assay type: in vivo, Glycine max; conditions: for Soybean plant response rating: preemergence, scale 0 (no effect) to 100 (complete control); for Plant response rating, Soybean: scale 0 to 100, 0 no effect, 100 complete control
In short: as §1

Surinam grass = assay: Test C pre-/postemergence test; assay type: in vivo, Brachiaria decumbens; conditions: for Surinam Grass plant response rating: preemergence, scale 0 (no effect) to 100 (complete control); for Plant response rating, Surinam Grass: scale 0 to 100, 0 no effect, 100 complete control
In short: as §1

kochia = assay: Test C pre-/postemergence test; assay type: in vivo, Kochia scoparia; conditions: for Plant response rating, Kochia: scale 0 to 100, 0 no effect, 100 complete control
In short: as §1

crabgrass [5] = assay: Test A pre-/postemergence greenhouse test; assay type: in vivo, Digitaria sanguinalis; conditions: for Crabgrass, Large plant response rating: 0 to 100 scale
In short: as §2

giant foxtail = assay: Test A pre-/postemergence greenhouse test; assay type: in vivo, Setaria faberi; conditions: for Foxtail, Giant plant response rating: 0 to 100 scale
In short: as §2

[6] = 31 g ai/ha, Preemergence, scale 0 to 100
[7] = 62 g ai/ha, preemergence, scale 0 (no effect) to 100 (complete control)
[8] = preemergence, 125 g ai/ha, scale 0 (no effect) to 100 (complete control)
[9] = Postemergence, 125 g ai/ha, 0 is no effect, 100 is complete control
[10] = Postemergence, 500 g ai/ha, 0 is no effect, 100 is complete control
[11] = Preemergence, 125 g ai/ha, 0 no effect, 100 complete control
[12] = Preemergence, 500 g ai/ha, 0 to 100 scale where 0 is no effect and 100 is complete control

## Cc1cc[n+]([O-])c([S+]([O-])Cc2c(C(F)(F)F)nn(C)c2OC(F)F)c1 (stereo not drawn) [Compound 1]
lambsquarters; [6]
  Lambsquarters plant response rating: 100
lambsquarters; [7]
  Lambsquarters plant response rating: 100
lambsquarters; Postemergence, 31 g ai/ha
  Plant response rating (0 to 100), Lambsquarters: 0
lambsquarters; Postemergence, 62 g ai/ha
  Plant response rating, Lambsquarters: 40
lambsquarters; Postemergence, 125 g ai/ha
  Plant response rating, Lambsquarters: 40
lambsquarters; Postemergence, 250 g ai/ha
  Plant response rating, Lambsquarters: 70
lambsquarters; Preemergence, 250 g ai/ha
  Plant response rating (0 to 100), Lambsquarters: 100
lambsquarters; [8]
  Lambsquarters plant response rating: 100
pigweed; [6]
  Pigweed plant response rating: 80
pigweed; [7]
  Pigweed plant response rating: 100
pigweed; Postemergence, 31 g ai/ha
  Plant response rating (0 to 100), Pigweed: 0
pigweed; Postemergence, 62 g ai/ha
  Plant response rating (0 to 100), Pigweed: 0
pigweed; Postemergence, 125 g ai/ha
  Plant response rating, Pigweed: 0
pigweed; Postemergence, 250 g ai/ha
  Plant response rating, Pigweed: 10
pigweed; Preemergence, 250 g ai/ha
  Plant response rating (0 to 100), Pigweed: 100
pigweed; [8]
  Pigweed plant response rating: 100
cocklebur; [6]
  Cocklebur plant response rating: 0
cocklebur; [7]
  Cocklebur plant response rating: 0
cocklebur; Postemergence, 31 g ai/ha
  Plant response rating (0 to 100), Cocklebur: 0
cocklebur; Postemergence, 62 g ai/ha
  Plant response rating, Cocklebur: 0
cocklebur; Postemergence, 125 g ai/ha
  Plant response rating, Cocklebur: 0
cocklebur; Postemergence, 250 g ai/ha
  Plant response rating, Cocklebur: 0
cocklebur; Preemergence, 250 g ai/ha
  Plant response rating (0 to 100), Cocklebur: 60
cocklebur; [8]
  Cocklebur plant response rating: 0
morningglory; [9]
  Morningglory plant response rating: 70
morningglory; [10]
  Morningglory plant response rating: 90
morningglory; [11]
  Morningglory plant response rating: 70
morningglory; [12]
  Plant response rating, Morningglory: 80
Barnyardgrass [1]; [9]
  Barnyardgrass plant response rating: 80
Barnyardgrass [1]; [10]
  Barnyardgrass plant response rating: 80
Barnyardgrass [1]; [11]
  Barnyardgrass plant response rating: 90
Barnyardgrass [1]; [12]
  Plant response rating, Barnyardgrass: 100
[2]; 62 g ai/ha
  Sunflower plant response rating: 5
[2]; Preemergence, 250 g ai/ha
  Plant response rating (0 to 100), Sunflower: 75
[2]; 125 g ai/ha
  Sunflower plant response rating: 25
bermudagrass; [6]
  Bermudagrass plant response rating: 85
bermudagrass; [7]
  Bermudagrass plant response rating: 90
bermudagrass; 125 g ai/ha
  Plant response rating, Bermudagrass: 70
bermudagrass; 250 g ai/ha
  Plant response rating, Bermudagrass: 80
bermudagrass; Preemergence, 250 g ai/ha
  Plant response rating (0 to 100), Bermudagrass: 100
bermudagrass; [8]
  Bermudagrass plant response rating: 100
Crabgrass [3]; [6]
  Crabgrass, Large plant response rating: 0
Crabgrass [3]; [7]
  Crabgrass, Large plant response rating: 80
Crabgrass [3]; Postemergence, 31 g ai/ha
  Plant response rating (0 to 100), Crabgrass, Large: 10
Crabgrass [3]; Postemergence, 62 g ai/ha
  Plant response rating, Crabgrass, Large: 30
Crabgrass [3]; Postemergence, 125 g ai/ha
  Plant response rating, Crabgrass, Large: 50
Crabgrass [3]; Postemergence, 250 g ai/ha
  Plant response rating, Crabgrass, Large: 70
Crabgrass [3]; Preemergence, 250 g ai/ha
  Plant response rating (0 to 100), Crabgrass, Large: 100
Crabgrass [3]; [8]
  Crabgrass, Large plant response rating: 100
Barnyardgrass [4]; 31 g ai/ha, scale 0 to 100 (0 no effect, 100 complete control)
  Plant response rating, Barnyardgrass: 0
Barnyardgrass [4]; 62 g ai/ha, scale 0 to 100, 0 no effect, 100 complete control, 13 to 15 days
  Plant response rating, Barnyardgrass: 0
Barnyardgrass [4]; 125 g ai/ha, scale 0 to 100, 0 no effect, 100 complete control, 13 to 15 days
  Plant response rating, Barnyardgrass: 80
Barnyardgrass [4]; 250 g ai/ha, scale 0 to 100 (0 no effect, 100 complete control)
  Plant response rating, Barnyardgrass: 80
Goosegrass; [6]
  Goosegrass plant response rating: 70
Goosegrass; [7]
  Goosegrass plant response rating: 100
Goosegrass; Postemergence, 31 g ai/ha
  Plant response rating (0 to 100), Goosegrass: 0
Goosegrass; Postemergence, 62 g ai/ha
  Plant response rating, Goosegrass: 0
Goosegrass; Postemergence, 125 g ai/ha
  Plant response rating, Goosegrass: 30
Goosegrass; Postemergence, 250 g ai/ha
  Plant response rating, Goosegrass: 80
Goosegrass; Preemergence, 250 g ai/ha
  Plant response rating (0 to 100), Goosegrass: 100
Goosegrass; [8]
  Goosegrass plant response rating: 100
Italian ryegrass; [6]
  Ryegrass, Italian plant response rating: 60
Italian ryegrass; [7]
  Ryegrass, Italian plant response rating: 100
Italian ryegrass; Postemergence, 31 g ai/ha
  Plant response rating (0 to 100), Ryegrass, Italian: 0
Italian ryegrass; Postemergence, 62 g ai/ha
  Plant response rating (0 to 100), Ryegrass, Italian: 0
Italian ryegrass; Postemergence, 125 g ai/ha
  Plant response rating, Ryegrass, Italian: 0
Italian ryegrass; Postemergence, 250 g ai/ha
  Plant response rating, Ryegrass, Italian: 30
Italian ryegrass; Preemergence, 250 g ai/ha
  Plant response rating (0 to 100), Ryegrass, Italian: 100
Italian ryegrass; [8]
  Ryegrass, Italian plant response rating: 100
soybean; 62 g ai/ha
  Soybean plant response rating: 100
soybean; Postemergence, 31 g ai/ha
  Plant response rating (0 to 100), Soybean: 60
soybean; Postemergence, 62 g ai/ha
  Plant response rating (0 to 100), Soybean: 85
soybean; Postemergence, 125 g ai/ha
  Plant response rating, Soybean: 85
soybean; Postemergence, 250 g ai/ha
  Plant response rating, Soybean: 90
soybean; Preemergence, 250 g ai/ha
  Plant response rating (0 to 100), Soybean: 100
soybean; 125 g ai/ha
  Soybean plant response rating: 100
Surinam grass; 62 g ai/ha
  Surinam Grass plant response rating: 100
Surinam grass; Postemergence, 31 g ai/ha
  Plant response rating (0 to 100), Surinam Grass: 0
Surinam grass; Postemergence, 62 g ai/ha
  Plant response rating (0 to 100), Surinam Grass: 0
Surinam grass; Postemergence, 125 g ai/ha
  Plant response rating, Surinam Grass: 30
Surinam grass; Postemergence, 250 g ai/ha
  Plant response rating, Surinam Grass: 60
Surinam grass; Preemergence, 250 g ai/ha
  Plant response rating (0 to 100), Surinam Grass: 100
Surinam grass; 125 g ai/ha
  Surinam Grass plant response rating: 100
kochia; [6]
  Kochia plant response rating: 100
kochia; [7]
  Kochia plant response rating: 100
kochia; Postemergence, 31 g ai/ha
  Plant response rating (0 to 100), Kochia: 0
kochia; Postemergence, 62 g ai/ha
  Plant response rating, Kochia: 0
kochia; Postemergence, 125 g ai/ha
  Plant response rating, Kochia: 10
kochia; Postemergence, 250 g ai/ha
  Plant response rating, Kochia: 40
kochia; Preemergence, 250 g ai/ha
  Plant response rating (0 to 100), Kochia: 100
kochia; [8]
  Kochia plant response rating: 100
Crabgrass [5]; [9]
  Crabgrass, Large plant response rating: 60
Crabgrass [5]; [10]
  Crabgrass, Large plant response rating: 90
Crabgrass [5]; [11]
  Crabgrass, Large plant response rating: 100
Crabgrass [5]; [12]
  Plant response rating, Crabgrass, Large: 100
Giant foxtail; [9]
  Foxtail, Giant plant response rating: 80
Giant foxtail; [10]
  Foxtail, Giant plant response rating: 90
Giant foxtail; [11]
  Foxtail, Giant plant response rating: 100
Giant foxtail; [12]
  Plant response rating, Foxtail, Giant: 100
